Literature values as cited in US20100035998A1, “COMBINATION S-NITROSOTHIOL PHARMACEUTICAL PRODUCTS FOR RESTORING NORMAL BREATHING RHYTHMS” (Galleon Pharmaceutical, Inc, priority 2005, published 2010).

Key:
upper airway tone = details: animals
central apnea patients = details: low doses
[1] = tested on: patients that had predominantly obstructive sleep apnea; details: low doses; patients with predominantly obstructive sleep apnea

| SMILES | effect on tone of the upper airway (upper airway tone) | apnea episodes after one month of treatment (central apnea patients; 25.5 pre-treatment) | decrease in apnea episodes (central apnea patients; pre-treatment vs after one month of treatment) | reduction in apnea episodes [1] |
| --- | --- | --- | --- | --- |
| CN1CCN2c3ncccc3Cc3ccccc3C2C1 (stereo not shown) [Mirtazapine] | help restore the tone of the upper airway to prevent collapse |  |  |  |
| CC(=O)Nc1nnc(S(N)(=O)=O)s1 [acetazolamide] |  | 6.8 | 73% | about 25% |
